Assay results reported in US12679836B2, “4H-pyrrolo[3,2-c]pyridin-4-one compounds” (Bayer Aktiengesellschaft, priority 2019, dated 2026).
Read-outs that look alike come from different tables or passages of the source.

Assays:
[1] = biological target: Ba/F3-EGFR-H773_V774insNPH cells (Homo sapiens, UniProt P00533, DUP771-773, cells depend on it); experiment: Ba/F3 cell survival assay, EGFR H773_V774insNPH; type: cell-based; conditions: read-out: BA/F3 (EGFR 773_774insNPH) IC50 [mol/l]; without IL-3, without EGF, 48 h
Procedure: (§1) 293T cells from ATCC were transfected with pBABEpuro expression constructs for mutant EGFR (V769_D770insASV, D770_N771insNPG, N771_P772insH, H773_V774insNPH, E746_A750del, L858R, D770_N771insSVD C797S, E746_A750del C797S, L858R C797S, L861Q) or mutant ERBB2 (A775_G776insYVMA) and pCL-Eco packaging vector using Fugene-6 transfection reagent from Promega. Plates were incubated at 37° C. for 48 h. Retrovirus was harvested by filtering the media supernatant through a 0.45 μm filter.
(§2) Ba/F3 cells purchased from DSMZ were grown in RPMI+10% FBS+10 ng/mL IL-3 and infected with filtered retroviral supernatant at a 1:2 dilution. Polybrene was added to a concentration of 8 μg/mL, plates were spun for 90 min, and incubated overnight at 37° C. 2 μg/mL puromycin was added to the infected cells 24 h after infection and cells were continually grown in the presence of puromycin and 10 ng/mL IL-3. Following stably expressing Ba/F3 cell lines were generated: Ba/F3-EGFR-V769_D770insASV, Ba/F3-EGFR-D770_N771insNPG, Ba/F3-EGFR-N771_P772insH, Ba/F3-EGFR-H773_V774insNPH, Ba/F3-EGFR-E746_A750del, Ba/F3-EGFR-L858R, Ba/F3-EGFR-D770_N771 insSVD C797S, Ba/F3-EGFR-E746_A750del C797S, Ba/F3-EGFR-L858R C797S, Ba/F3-EGFR L861Q and Ba/F3-ERBB2-A775_G776insYVMA (Ba/F3-vector-control).
(§3) For cell survival assays, Ba/F3 cells were grown to a density of 1-2 million cells per mL, spun down and resuspended in media without IL-3, and replated at a concentration 200,000-500,000 cells per mL. The cells ectopically expressing WT EGFR plated with 10 ng/mL Millipore Culture grade EGF and Ba/F3 cells containing mutant EGFR or Mutant ERBB2 were cultivated without EGF. The cells ectopically expressing pBABEpuro empty vector were plated with 10 ng/mL IL-3.
(§4) 2 days later, cells were plated in 50 μL in a 384 well plate at a concentration of 4000 cells per well for cells assayed in the absence of IL-3 and 2000 cells per well for cells assayed in the presence of IL-3. 100 nL of compound was added to each well using a 100 nL pin head, and plates were incubated at 37° C. for 48 h.
(§5) Cell viability was measured by adding 20 μL of Cell Titer-Glo Luminescent Cell Viability Reagent diluted 1:3 in PBS. Plates were sealed with Perkin Elmer Top-Seal, inverted several times to mix, and immediately centrifuged at 1000 rpm for 2 min. Plates were incubated in low light conditions for 8-10 min and luminescence was measured.

[2] = biological target: Ba/F3-EGFR-D770_N771insNPG cells (Homo sapiens, UniProt P00533, INS772GNP, cells depend on it); experiment: Ba/F3 cell survival assay, EGFR D770_N771insNPG; type: cell-based; conditions: without IL-3, without EGF, 48 h; read-out: BA/F3 (insNPG) IC50
Sequence of Ba/F3-EGFR-D770_N771insNPG cells (P00533 with tags, fused parts or gaps INS772GNP): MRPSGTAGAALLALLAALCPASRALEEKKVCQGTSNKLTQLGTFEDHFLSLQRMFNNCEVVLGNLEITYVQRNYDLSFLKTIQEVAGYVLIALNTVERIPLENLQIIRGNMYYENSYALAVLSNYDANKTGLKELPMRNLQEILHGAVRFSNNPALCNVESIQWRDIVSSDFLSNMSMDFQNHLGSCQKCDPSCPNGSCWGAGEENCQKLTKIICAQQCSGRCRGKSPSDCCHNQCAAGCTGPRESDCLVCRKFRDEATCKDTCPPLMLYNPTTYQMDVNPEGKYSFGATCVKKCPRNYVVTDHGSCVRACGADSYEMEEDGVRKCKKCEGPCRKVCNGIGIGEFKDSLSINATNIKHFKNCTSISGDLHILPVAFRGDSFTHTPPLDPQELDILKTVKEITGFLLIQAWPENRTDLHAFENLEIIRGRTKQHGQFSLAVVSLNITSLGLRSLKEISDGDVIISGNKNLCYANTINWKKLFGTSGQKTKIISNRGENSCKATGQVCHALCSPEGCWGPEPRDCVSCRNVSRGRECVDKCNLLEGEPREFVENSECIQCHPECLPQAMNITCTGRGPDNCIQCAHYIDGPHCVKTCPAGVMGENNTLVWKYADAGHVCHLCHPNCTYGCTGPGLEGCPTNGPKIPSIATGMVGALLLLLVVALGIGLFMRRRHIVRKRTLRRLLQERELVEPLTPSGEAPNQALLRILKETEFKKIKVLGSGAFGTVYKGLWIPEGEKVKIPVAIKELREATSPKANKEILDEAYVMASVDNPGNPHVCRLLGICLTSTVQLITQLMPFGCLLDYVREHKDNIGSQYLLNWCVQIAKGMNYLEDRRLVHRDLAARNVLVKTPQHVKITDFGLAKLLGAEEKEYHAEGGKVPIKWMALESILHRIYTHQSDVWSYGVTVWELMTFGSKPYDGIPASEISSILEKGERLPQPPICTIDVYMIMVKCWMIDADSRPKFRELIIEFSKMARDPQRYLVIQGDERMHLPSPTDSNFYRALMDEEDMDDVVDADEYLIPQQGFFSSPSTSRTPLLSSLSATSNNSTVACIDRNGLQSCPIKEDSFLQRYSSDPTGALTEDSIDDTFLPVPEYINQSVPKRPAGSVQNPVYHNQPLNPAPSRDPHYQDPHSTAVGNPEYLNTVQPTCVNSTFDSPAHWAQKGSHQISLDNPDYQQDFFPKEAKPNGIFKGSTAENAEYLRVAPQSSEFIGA
Procedure: as §1, §2, §3, §4, §5

[3] = biological target: Ba/F3-ERBB2-A775_G776insYVMA cells (Homo sapiens, UniProt P04626, DUP772-775, cells depend on it); experiment: Ba/F3 cell survival assay, ERBB2 A775_G776insYVMA; type: cell-based; conditions: without IL-3, without EGF, 48 h; read-out: BA/F3 (ERBB2 A775_G776 insYVMA) IC50
Procedure: as §1, §2, §3, §4, §5

[4] = biological target: Ba/F3-EGFR-D770_N771 insSVD C797S cells (Homo sapiens, UniProt P00533, DUP768-770/C797S, cells depend on it); experiment: Ba/F3 cell survival assay, EGFR D770_N771insSVD C797S; type: cell-based; conditions: without IL-3, without EGF, 48 h; read-out: BA/F3 (EGFR 0770_N771 insSVD C797S) IC50
Sequence of Ba/F3-EGFR-D770_N771 insSVD C797S cells (P00533 with tags, fused parts or gaps DUP768-770/C797S): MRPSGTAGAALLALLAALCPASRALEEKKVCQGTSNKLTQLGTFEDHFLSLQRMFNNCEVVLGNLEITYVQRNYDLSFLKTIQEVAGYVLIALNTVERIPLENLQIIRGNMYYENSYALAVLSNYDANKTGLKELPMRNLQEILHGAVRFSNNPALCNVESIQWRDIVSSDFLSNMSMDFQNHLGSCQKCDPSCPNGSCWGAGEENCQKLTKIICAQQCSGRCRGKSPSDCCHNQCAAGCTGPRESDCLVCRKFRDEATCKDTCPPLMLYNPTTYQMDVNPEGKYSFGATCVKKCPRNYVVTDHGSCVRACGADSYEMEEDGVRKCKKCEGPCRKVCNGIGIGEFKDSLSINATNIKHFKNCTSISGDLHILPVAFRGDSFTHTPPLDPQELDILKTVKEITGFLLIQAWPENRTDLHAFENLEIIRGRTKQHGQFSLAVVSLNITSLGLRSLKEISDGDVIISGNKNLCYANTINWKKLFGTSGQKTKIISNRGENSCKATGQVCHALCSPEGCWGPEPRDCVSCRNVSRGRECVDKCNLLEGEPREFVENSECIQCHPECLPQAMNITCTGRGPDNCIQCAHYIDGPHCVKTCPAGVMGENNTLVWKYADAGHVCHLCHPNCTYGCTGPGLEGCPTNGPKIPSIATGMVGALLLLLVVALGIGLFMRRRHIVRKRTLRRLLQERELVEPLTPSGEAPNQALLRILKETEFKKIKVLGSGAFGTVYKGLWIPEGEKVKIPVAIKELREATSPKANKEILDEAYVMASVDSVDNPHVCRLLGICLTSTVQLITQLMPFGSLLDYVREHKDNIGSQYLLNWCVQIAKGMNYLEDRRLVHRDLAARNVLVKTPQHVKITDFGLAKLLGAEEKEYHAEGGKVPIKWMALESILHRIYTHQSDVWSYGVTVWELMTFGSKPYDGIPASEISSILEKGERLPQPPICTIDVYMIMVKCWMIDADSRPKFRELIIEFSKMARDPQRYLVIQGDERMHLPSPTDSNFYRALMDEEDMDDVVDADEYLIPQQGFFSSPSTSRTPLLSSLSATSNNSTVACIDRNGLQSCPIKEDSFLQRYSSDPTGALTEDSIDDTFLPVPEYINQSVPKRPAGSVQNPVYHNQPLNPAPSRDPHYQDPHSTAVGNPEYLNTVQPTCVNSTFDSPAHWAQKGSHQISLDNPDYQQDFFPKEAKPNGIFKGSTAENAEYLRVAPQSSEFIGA
Procedure: as §1, §2, §3, §4, §5

Bub1 = biological target: T1, Bub1 (Homo sapiens, UniProt O43683); experiment: Bub1 TR-FRET high ATP kinase assay; type: biochemical; conditions: 2 mM ATP
T1 construct: catalytic domain of human Bub1 (amino acids 704-1085); His6 (N); made in house; host or cells: Hi5 insect cells
T1 sequence (O43683 704-1085): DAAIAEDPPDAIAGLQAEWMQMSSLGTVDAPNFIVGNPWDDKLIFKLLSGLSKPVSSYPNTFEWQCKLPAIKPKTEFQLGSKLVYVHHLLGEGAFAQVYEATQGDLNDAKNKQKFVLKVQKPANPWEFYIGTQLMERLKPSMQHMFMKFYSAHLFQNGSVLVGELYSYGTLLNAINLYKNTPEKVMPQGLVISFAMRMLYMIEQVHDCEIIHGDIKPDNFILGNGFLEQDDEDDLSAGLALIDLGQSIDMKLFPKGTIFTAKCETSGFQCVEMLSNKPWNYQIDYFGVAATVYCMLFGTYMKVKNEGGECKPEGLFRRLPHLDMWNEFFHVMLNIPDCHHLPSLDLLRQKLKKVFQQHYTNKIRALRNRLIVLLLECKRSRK
Method in brief: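 Recombinant His6-tagged human Bub1 catalytic domain (aa 704-1085), from Hi5 insect cells, phosphorylating a biotinylated peptide substrate at high ATP concentration. TR-FRET read-out.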

[5] = biological target: Ba/F3-EGFR-N771_P772insH cells (Homo sapiens, UniProt P00533, INS771H, cells depend on it); experiment: Ba/F3 cell survival assay, EGFR N771_P772insH; type: cell-based; conditions: without IL-3, without EGF, 48 h; read-out: BA/F3 (EGFR N771_772 insH) IC50
Procedure: as §1, §2, §3, §4, §5

[6] = biological target: Ba/F3-EGFR-V769_D770insASV cells (Homo sapiens, UniProt P00533, DUP767-769, cells depend on it); experiment: Ba/F3 cell survival assay, EGFR V769_D770insASV; type: cell-based; conditions: without IL-3, without EGF, 48 h; read-out: BA/F3 (ASV) IC50
Procedure: as §1, §2, §3, §4, §5

[7] = biological target: Ba/F3-EGFR-L858R C797S cells (Homo sapiens, UniProt P00533, C797S/L858R, cells depend on it); experiment: Ba/F3 cell survival assay, EGFR L858R C797S; type: cell-based; conditions: without IL-3, without EGF, 48 h; read-out: BA/F3 (EGFR L858R C797S) IC50
Sequence of Ba/F3-EGFR-L858R C797S cells (P00533 whole entry C797S/L858R): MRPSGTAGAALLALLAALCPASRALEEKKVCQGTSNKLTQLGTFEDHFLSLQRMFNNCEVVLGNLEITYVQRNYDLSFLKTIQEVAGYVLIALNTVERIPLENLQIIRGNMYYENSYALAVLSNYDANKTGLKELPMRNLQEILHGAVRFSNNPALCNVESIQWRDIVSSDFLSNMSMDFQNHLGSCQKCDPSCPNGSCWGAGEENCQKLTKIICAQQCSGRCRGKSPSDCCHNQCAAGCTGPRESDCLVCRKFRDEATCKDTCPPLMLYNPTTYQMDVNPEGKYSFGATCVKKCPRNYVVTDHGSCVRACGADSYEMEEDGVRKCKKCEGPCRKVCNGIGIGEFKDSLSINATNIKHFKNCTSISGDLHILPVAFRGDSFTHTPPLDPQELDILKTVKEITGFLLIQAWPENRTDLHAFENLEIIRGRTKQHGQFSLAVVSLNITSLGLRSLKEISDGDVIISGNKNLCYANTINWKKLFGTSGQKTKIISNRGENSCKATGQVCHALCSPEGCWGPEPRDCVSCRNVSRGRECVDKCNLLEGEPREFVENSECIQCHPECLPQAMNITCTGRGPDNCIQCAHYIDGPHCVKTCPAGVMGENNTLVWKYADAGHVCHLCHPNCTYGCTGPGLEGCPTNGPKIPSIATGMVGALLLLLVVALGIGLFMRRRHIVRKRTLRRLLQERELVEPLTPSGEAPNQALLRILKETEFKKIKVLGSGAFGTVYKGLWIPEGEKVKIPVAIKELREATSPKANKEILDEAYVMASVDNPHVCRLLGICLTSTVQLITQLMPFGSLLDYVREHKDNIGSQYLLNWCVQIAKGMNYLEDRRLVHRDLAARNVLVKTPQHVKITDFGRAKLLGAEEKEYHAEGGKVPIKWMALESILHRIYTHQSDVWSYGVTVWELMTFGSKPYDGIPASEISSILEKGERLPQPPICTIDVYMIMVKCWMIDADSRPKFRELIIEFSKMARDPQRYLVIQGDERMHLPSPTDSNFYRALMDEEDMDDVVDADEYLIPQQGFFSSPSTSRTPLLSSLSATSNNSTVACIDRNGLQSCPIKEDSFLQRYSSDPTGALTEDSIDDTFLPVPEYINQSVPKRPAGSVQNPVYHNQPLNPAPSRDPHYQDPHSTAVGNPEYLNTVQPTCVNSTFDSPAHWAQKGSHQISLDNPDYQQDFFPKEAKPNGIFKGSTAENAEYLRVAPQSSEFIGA
Procedure: as §1, §2, §3, §4, §5

Ba/F3-EGFR-L858R cells = Ba/F3-EGFR-L858R cells (Homo sapiens, UniProt P00533, L858R, cells depend on it); experiment: Ba/F3 cell survival assay, EGFR L858R; type: cell-based; conditions: without IL-3, without EGF, 48 h; read-out: BA/F3 (EGFR L858R) IC50
Procedure: as §1, §2, §3, §4, §5

[8] = Bub1 high ATP (2 mM) IC50 [mol/l]

IC50 (Bub1; [8]) [nM] | IC50 (Bub1; read-out: Bub1 high ATP (2 mM) IC50 [mol/l]) [nM] | Structure (SMILES) | GI50 [1] [nM] | GI50 [2] [nM] | GI50 [3] [nM] | GI50 [4] [nM] | GI50 [5] [nM] | GI50 [6] [nM] | GI50 [7] [nM] | GI50 (Ba/F3-EGFR-L858R cells) [nM]
9530 | – | COc1c(F)cccc1Nc1c(-c2ccncc2OC[C@@H]2COCCN2C)[nH]c2c1C(=O)NCC2 [Example 20, 3-(3-fluoro-2-methoxyanilino)-2-(3-{[(3S)-4-methylmorpholin-3-yl]methoxy}pyridin-4-yl)-1,5,6,7-tetrahydro-4H-pyrrolo[3,2-c]pyridin-4-one] | 56.7 | 14.7 | 23.5 | 12.2 | 6.59 | 11.7 | 0.791 | –
3540 | – | Cc1c(Cl)cccc1Nc1c(-c2ccncc2OC[C@H]2COCCO2)[nH]c2c1C(=O)NCC2 (single isomer, unassigned) [Example 50] | 40.3 | 11.3 | 10.3 | 26.7 | 7.42 | 10.4 | 1.6 | 1.07
– | – | COc1c(Cl)cccc1Nc1c(-c2ccncc2OCC2COC(C)(C)CO2)[nH]c2c1C(=O)NCC2 (single isomer, unassigned) [Example 32, 3-(3-chloro-2-methoxyanilino)-2-{3-[(5,5-dimethyl-1,4-dioxan-2-yl)methoxy]pyridin-4-yl}-1,5,6,7-tetrahydro-4H-pyrrolo[3,2-c]pyridin-4-one] | 47.3 | 9.38 | 16.7 | 15.8 | 11 | 13.2 | 1.12 | 1.06
> 20000 | – | Cc1c(Cl)cccc1Nc1c(-c2ccncc2OC[C@@H]2CN(C)CCO2)[nH]c2c1C(=O)NCC2 [Example 42, 3-(3-chloro-2-methylanilino)-2-(3-{[(2S)-4-methylmorpholin-2-yl]methoxy}pyridin-4-yl)-1,5,6,7-tetrahydro-4H-pyrrolo[3,2-c]pyridin-4-one] | 48.5 | 12 | 13.2 | 19.3 | 6.01 | 14.1 | 1.63 | 1.51
6040 | – | COc1c(Cl)cccc1Nc1c(-c2ccncc2OC[C@@H]2COCCO2)[nH]c2c1C(=O)NCC2 (single isomer, unassigned) [Example 2] | 28.2 | 4.44 | 8.31 | 8.22 | 7.48 | 4.66 | 0.603 | 0.525
12200 | – | Cc1c(F)cccc1Nc1c(-c2ccncc2OCC2COCCO2)[nH]c2c1C(=O)NCC2 (single isomer, unassigned) [Example 48, 2-[3-(1,4-dioxan-2-ylmethoxy)-4-pyridyl]-3-(3-fluoro-2-methyl-anilino)-1,5,6,7-tetrahydropyrrolo[3,2-c]pyridin-4-one] | 142 | 42.4 | 39.8 | – | 17.6 | 41.8 | – | 2.36
3790 | – | COc1c(Cl)cccc1Nc1c(-c2ccncc2OC[C@@H]2COCCN2C)[nH]c2c1C(=O)NCC2 [Example 21, 3-(3-chloro-2-methoxyanilino)-2-(3-{[(3S)-4-methylmorpholin-3-yl]methoxy}pyridin-4-yl)-1,5,6,7-tetrahydro-4H-pyrrolo[3,2-c]pyridin-4-one] | 27.6 | 5.65 | 13.4 | 7.84 | 4.22 | 7.78 | 0.444 | 0.644
7880 | – | O=C1NCCc2[nH]c(-c3ccncc3OCC3COCCO3)c(Nc3cccc(Cl)c3Cl)c21 (single isomer, unassigned) [Example 8, 3-(2,3-dichloroanilino)-2-{3-[(1,4-dioxan-2-yl)methoxy]pyridin-4-yl}-1,5,6,7-tetrahydro-4H-pyrrolo[3,2-c]pyridin-4-one] | 23.1 | 11.6 | 13.1 | 14.6 | 4.91 | 9.62 | 1.2 | 0.701
12900 | – | COc1c(F)cccc1Nc1c(-c2ccncc2OCC2COCCO2)[nH]c2c1C(=O)NCC2 (single isomer, unassigned) [Example 5, 2-{3-[(1,4-dioxan-2-yl)methoxy]pyridin-4-yl}-3-(3-fluoro-2-methoxyanilino)-1,5,6,7-tetrahydro-4H-pyrrolo[3,2-c]pyridin-4-one] | 79.3 | 26.3 | – | 37 | 11.5 | 28.7 | 2.67 | 2.03
– | > 20000 | COc1c(F)cccc1Nc1c(-c2ccncc2OCC2CN(C)CCO2)[nH]c2c1C(=O)NCC2 (single isomer, unassigned) [Example 14, 3-(3-fluoro-2-methoxyanilino)-2-{3-[(4-methylmorpholin-2-yl)methoxy]pyridin-4-yl}-1,5,6,7-tetrahydro-4H-pyrrolo[3,2-c]pyridin-4-one] | 65.8 | 12.5 | 13.6 | 24.9 | 7.6 | 16.4 | 1.91 | 1.22
13000 | – | Cc1c(Cl)cccc1Nc1c(-c2ccncc2OCC2COC(C)(C)CO2)[nH]c2c1C(=O)NCC2 (single isomer, unassigned) [Example 46, 3-(3-chloro-2-methyl-anilino)-2-[3-[(5,5-dimethyl-1,4-dioxan-2-yl)methoxy]-4-pyridyl]-1,5,6,7-tetrahydropyrrolo[3,2-c]pyridin-4-one] | 38.9 | 14.3 | 11 | – | 5.77 | 11.7 | – | 0.957
16500 | – | CCc1c(Cl)cccc1Nc1c(-c2ccncc2OC[C@@H]2CN(C)CCO2)[nH]c2c1C(=O)NCC2 [Example 56, 3-(3-chloro-2-ethylanilino)-2-(3-{[(2S)-4-methylmorpholin-2-yl]methoxy}pyridin-4-yl)-1,5,6,7-tetrahydro-4H-pyrrolo[3,2-c]pyridin-4-one] | 48.9 | 6.96 | 13.5 | 14 | 7.36 | 14.1 | 1.31 | 1.34
